Consider 19 molecules from patent publication US20220389003A1, “4-SUBSTITUTED INDOLE AND INDAZOLE SULFONAMIDO DERIVATIVES AS PARG INHIBITORS” (IDEAYA BIOSCIENCES, INC., priority 2019, published 2022).

In test [1] the target is T1, PARG (Homo sapiens, UniProt Q86W56). Briefly: Inhibition of PARG cellular assay (PAR foci in HeLa cells after MMS). It is filed as cell-based. Set-up: endogenous in cells; host or cells: HeLa. The conditions noted are these: compound 1 h then MMS 1 h. In short, it runs like this: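 HeLa cells pretreated with compound for 1 h, then given MMS for a further 1 h, fixed and immunostained for PAR polymer. High-content imaging quantified nuclear PAR foci intensity (PAR Foci IC50) and percent cells with foci signal >1.3 (PAR % positive IC50).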
T1 sequence (Q86W56 whole entry): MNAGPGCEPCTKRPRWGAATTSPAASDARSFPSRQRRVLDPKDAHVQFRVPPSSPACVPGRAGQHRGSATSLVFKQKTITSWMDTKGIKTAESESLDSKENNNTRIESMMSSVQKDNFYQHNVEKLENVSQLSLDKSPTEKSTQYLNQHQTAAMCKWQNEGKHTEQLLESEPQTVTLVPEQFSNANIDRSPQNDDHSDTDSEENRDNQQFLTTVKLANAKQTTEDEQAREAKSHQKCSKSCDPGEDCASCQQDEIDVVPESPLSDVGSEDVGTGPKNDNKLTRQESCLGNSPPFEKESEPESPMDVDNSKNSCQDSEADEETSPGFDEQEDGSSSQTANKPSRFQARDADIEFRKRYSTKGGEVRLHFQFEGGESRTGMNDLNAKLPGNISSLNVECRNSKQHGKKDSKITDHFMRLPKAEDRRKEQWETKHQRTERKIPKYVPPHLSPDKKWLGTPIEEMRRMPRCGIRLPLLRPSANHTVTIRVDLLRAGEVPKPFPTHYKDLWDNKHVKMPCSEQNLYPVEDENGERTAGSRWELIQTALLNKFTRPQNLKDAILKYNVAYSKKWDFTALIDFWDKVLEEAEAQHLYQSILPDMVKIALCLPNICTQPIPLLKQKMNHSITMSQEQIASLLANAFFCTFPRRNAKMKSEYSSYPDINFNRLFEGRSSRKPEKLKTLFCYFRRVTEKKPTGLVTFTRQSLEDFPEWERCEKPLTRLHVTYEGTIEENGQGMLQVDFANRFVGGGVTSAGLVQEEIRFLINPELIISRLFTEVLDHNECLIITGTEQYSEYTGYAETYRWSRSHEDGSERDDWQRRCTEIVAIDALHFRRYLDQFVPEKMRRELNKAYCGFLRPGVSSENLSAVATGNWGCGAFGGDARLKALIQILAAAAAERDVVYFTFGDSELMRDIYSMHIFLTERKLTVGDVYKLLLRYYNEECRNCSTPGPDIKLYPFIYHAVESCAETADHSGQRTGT

For test [2], the system named is HCC1806-XRCC1 KD (knock down) cells. In words: Cellular viability assay (Cell Titer-Glo). It is filed as cell-based. Conditions: 96 h, HCC1806-shXRCC1 cells, 4 days of incubation, read-out: PARGi cell viability. In short, it runs like this: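 XRCC1-knockdown HCC1806 cells seeded 24 h before dosing; 9-point 1:3 dilution from 30 μM top concentration, duplicates, 4-day incubation. Viability by CellTiter-Glo luminescence, normalized to DMSO wells as % of control; curves fit with 4-parameter inhibition model.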

Test [3] has as its target T1, PARG. In words: Inhibition of PARG enzymatic assay (TR-FRET enzymatic IC50 assay). It is filed as biochemical. Also noted: purchased Peak Proteins. The conditions noted are these: hPARG 250 pM, biotinylated-PARylated PARP substrate 30 nM. The procedure, abridged: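 Compound preincubated 1 h with 250 pM His-tagged hPARG, then 30 nM biotinylated PARylated hPARP1 substrate added for 10 min; buffer 50 mM Tris-HCl pH 7.4, EDTA/EGTA, 1 mM DTT, 23° C. TR-FRET read after 1 h with anti-His ULight antibody and streptavidin-europium; inhibition scaled between DMSO and no-enzyme controls.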

Where only a bound is given, the exact number is not on record here.

With `CC(=O)N1CCN(c2cc(S(=O)(=O)NC3(C#N)CC3)cc3c2cnn3-c2nnc(C(F)F)s2)CC1` [Example 50, 1-[({4-(4-acetylpiperazinyl)-1-[5-(difluoromethyl)(1,3,4-thiadiazol-2-yl)]-1H-indazol-6-yl}sulfonyl)amino]cyclopropanecarbonitrile], the IC50 at PARG [1] was 0.3 to 1 µM; in test [2] it was 1 to 10 µM; against PARG [3], no more than 0.1 µM.
The like results for `CN(C)C(=O)C1CCN(c2cc(S(=O)(=O)NC3(C#N)CC3)cc3c2cnn3-c2nnc(C(F)F)s2)CC1` [Example 51, [1-(1-[5-(difluoromethyl)(1,3,4-thiadiazol-2-yl)]-6-{[(cyanocyclopropyl)amino]sulfonyl}(1H-indazol-4-yl))(4-piperidyl)]-N,N-dimethylcarboxamide] were, in that order, 0.3 to 1 µM, 10 to 20 µM and 0.1 to 0.3 µM.
`N#CC1(NS(=O)(=O)c2cc(N3CCS(=O)(=O)CC3)c3cnn(-c4nnc(C(F)F)s4)c3c2)CC1` [Example 52, N-(1-cyanocyclopropyl)-1-(5-(difluoromethyl)-1,3,4-thiadiazol-2-yl)-4-(1,1-dioxidothiomorpholino)-1H-indazole-6-sulfonamide]: the IC50 was 0.3 to 1 µM at PARG [1], 1 to 10 µM in test [2] and no more than 0.1 µM against PARG [3].
The matching figures for `N#CC1(NS(=O)(=O)c2cc(N3CCN(C(=O)N4CCCC4)CC3)c3cnn(-c4nnc(C(F)F)s4)c3c2)CC1` [Example 57, 1-[({1-[5-(difluoromethyl)(1,3,4-thiadiazol-2-yl)]-4-[4-(pyrrolidinylcarbonyl)-piperazinyl]-1H-indazol-6-yl}sulfonyl)amino]cyclopropanecarbonitrile]: no more than 0.1 µM, less than 1 µM and no more than 0.1 µM.
The matching figures for `N#CC1(NS(=O)(=O)c2cc(N3CCN4C(=O)CC[C@H]4C3)c3cnn(-c4nnc(C(F)F)s4)c3c2)CC1` [Example 59, 1-[({4-((1S)-7-oxo-3,6-diazabicyclo[4.3.0]non-3-yl)-1-[5-(difluoromethyl)(1,3,4-thiadiazol-2-yl)]-1H-indazol-6-yl}sulfonyl)amino]cyclopropanecarbonitrile]: 0.3 to 1 µM, 1 to 10 µM and no more than 0.1 µM.
The like results for `N#CC1(NS(=O)(=O)c2cc(N3CCN4C(=O)CC[C@@H]4C3)c3cnn(-c4nnc(C(F)F)s4)c3c2)CC1` [Example 60, 1-[({4-((1R)-7-oxo-3,6-diazabicyclo[4.3.0]non-3-yl)-1-[5-(difluoromethyl)(1,3,4-thiadiazol-2-yl)]-1H-indazol-6-yl}sulfonyl)amino]cyclopropanecarbonitrile] were, in that order, 0.1 to 0.3 µM, 1 to 10 µM and no more than 0.1 µM.
As to `N#CC1(NS(=O)(=O)c2cc(N3CCN(C(=O)C4CCCC4)CC3)c3cnn(-c4nnc(C(F)F)s4)c3c2)CC1` [Example 66, 1-[({1-[5-(difluoromethyl)(1,3,4-thiadiazol-2-yl)]-4-[4-(cyclopentylcarbonyl)piperazinyl]-1H-indazol-6-yl}sulfonyl)amino]cyclopropanecarbonitrile], the IC50 against PARG [1] was no more than 0.1 µM; in test [2] it was 1 to 10 µM; against PARG [3], no more than 0.1 µM.
Turning to `CN(CC(F)F)C(=O)N1CCN(c2cc(S(=O)(=O)NC3(C#N)CC3)cc3c2cnn3-c2nnc(C(F)F)s2)CC1` [Example 67, N-(2,2-difluoroethyl)[4-(1-[5-(difluoromethyl)(1,3,4-thiadiazol-2-yl)]-6-{[(cyanocyclopropyl)amino]sulfonyl}(1H-indazol-4-yl))piperazinyl]-N-methylcarboxamide], the IC50 against PARG [1] was no more than 0.1 µM; in test [2], less than 1 µM; against PARG [3] it was no more than 0.1 µM.
As for `CN1CC[C@H](C(=O)N2CCN(c3cc(S(=O)(=O)NC4(C#N)CC4)cc4c3cnn4-c3nnc(C(F)F)s3)CC2)C1` [Example 68, 1-{[(4-{4-[((3S)-1-methylpyrrolidin-3-yl)carbonyl]piperazinyl}-1-[5-(difluoromethyl)(1,3,4-thiadiazol-2-yl)]-1H-indazol-6-yl)sulfonyl]amino}cyclopropanecarbonitrile], the IC50 against PARG [1] is 1 to 10 µM; in test [2] it was 1 to 10 µM; against PARG [3], no more than 0.1 µM.
With `Cn1ccnc1N1CCN(c2cc(S(=O)(=O)NC3(C#N)CC3)cc3c2cnn3-c2nnc(C(F)F)s2)CC1` [Example 69, 1-[({1-[5-(difluoromethyl)(1,3,4-thiadiazol-2-yl)]-4-[4-(1-methylimidazol-2-yl)piperazinyl]-1H-indazol-6-yl}sulfonyl)amino]cyclopropanecarbonitrile], the IC50 at PARG [1] is no more than 0.1 µM; in test [2] it was less than 1 µM; against PARG [3] it was no more than 0.1 µM.
For the molecule `CCCN(C)C(=O)N1CCN(c2cc(S(=O)(=O)NC3(C#N)CC3)cc3c2cnn3-c2nnc(C(F)F)s2)CC1` [Example 77, [4-(1-[5-(difluoromethyl)(1,3,4-thiadiazol-2-yl)]-6-{[(cyanocyclopropyl)amino]sulfonyl}(1H-indazol-4-yl))piperazinyl]-N-methyl-N-propylcarboxamide], the results for the IC50 (against PARG [1]; in test [2]; at PARG [3]) were no more than 0.1 µM, less than 1 µM and no more than 0.1 µM, respectively.
As to `Cc1cccnc1N1CCN(c2cc(S(=O)(=O)NC3(C#N)CC3)cc3c2cnn3-c2nnc(C(F)F)s2)CC1` [Example 79, 1-[({1-[5-(difluoromethyl)(1,3,4-thiadiazol-2-yl)]-4-[4-(3-methyl(2-pyridyl))-piperazinyl]-1H-indazol-6-yl}sulfonyl)amino]cyclopropanecarbonitrile], the IC50 against PARG [1] lay within 0.1 to 0.3 µM; in test [2] it was 1 to 10 µM; at PARG [3], 0.3 to 1 µM.
As for `N#CC1(NS(=O)(=O)c2cc(N3CCN(C(=O)C4CC4)CC3)c3cnn(-c4nnc(C(F)F)s4)c3c2)CC1` [Example 80, 1-[({1-[5-(difluoromethyl)(1,3,4-thiadiazol-2-yl)]-4-[4-(cyclopropylcarbonyl)piperazinyl]-1H-indazol-6-yl}sulfonyl)amino]cyclopropanecarbonitrile], the IC50 is no more than 0.1 µM at PARG [1], 1 to 10 µM in test [2] and no more than 0.1 µM against PARG [3].
`CC(C)C(=O)N1CCN(c2cc(S(=O)(=O)NC3(C#N)CC3)cc3c2cnn3-c2nnc(C(F)F)s2)C[C@H]1C` [Example 82, 1-[({4-[(3R)-3-methyl-4-(2-methylpropanoyl)piperazinyl]-1-[5-(difluoromethyl) (1,3,4-thiadiazol-2-yl)]-1H-indazol-6-yl}sulfonyl)amino]cyclopropanecarbonitrile]: the IC50 against PARG [1] was no more than 0.1 µM; in test [2] it was less than 1 µM; against PARG [3] it was no more than 0.1 µM.
For `C[C@H]1CN(c2cc(S(=O)(=O)NC3(C#N)CC3)cc3c2cnn3-c2nnc(C(F)F)s2)CCN1C(=O)N(C)C` [Example 83, [(2S)-4-(1-[5-(difluoromethyl)(1,3,4-thiadiazol-2-yl)]-6-{[(cyanocyclopropyl)amino]sulfonyl}(1H-indazol-4-yl))-2-methylpiperazinyl]-N,N-dimethylcarboxamide], the IC50 on PARG [1] was no more than 0.1 µM; in test [2], less than 1 µM; against PARG [3], no more than 0.1 µM.
In the case of `Cc1ccncc1N1CCN(c2cc(S(=O)(=O)NC3(C#N)CC3)cc3c2cnn3-c2nnc(C(F)F)s2)CC1` [Example 84, 1-[({1-[5-(difluoromethyl)(1,3,4-thiadiazol-2-yl)]-4-[4-(4-methyl(3-pyridyl))piperazinyl]-1H-indazol-6-yl}sulfonyl)amino]cyclopropanecarbonitrile], the IC50 against PARG [1] lay within 0.1 to 0.3 µM; in test [2], 1 to 10 µM; at PARG [3], 0.3 to 1 µM.
The matching figures for `CN1CCC(C(=O)N2CCN(c3cc(S(=O)(=O)NC4(C#N)CC4)cc4c3cnn4-c3nnc(C(F)F)s3)CC2)CC1` [Example 85, 1-{[(1-[5-(difluoromethyl)(1,3,4-thiadiazol-2-yl)]-4-{4-[(1-methyl(4-piperidyl))-carbonyl]piperazinyl}-1H-indazol-6-yl)sulfonyl]amino}cyclopropanecarbonitrile]: 1 to 10 µM, 1 to 10 µM and no more than 0.1 µM.
Take `CN(CC(F)(F)F)C(=O)N1CCN(c2cc(S(=O)(=O)NC3(C#N)CC3)cc3c2cnn3-c2nnc(C(F)F)s2)CC1` [Example 86, [4-(1-[5-(difluoromethyl)(1,3,4-thiadiazol-2-yl)]-6-{[(cyanocyclopropyl)amino]sulfonyl}(1H-indazol-4-yl))piperazinyl]-N-methyl-N-(2,2,2-trifluoroethyl)carboxamide]: the IC50 against PARG [1] is no more than 0.1 µM; in test [2] it was less than 1 µM; against PARG [3] it was no more than 0.1 µM.
For the molecule `N#CC1(NS(=O)(=O)c2cc(N3CCN(C(=O)c4ccccn4)CC3)c3cnn(-c4nnc(C(F)F)s4)c3c2)CC1` [Example 87, 1-[({1-[5-(difluoromethyl)(1,3,4-thiadiazol-2-yl)]-4-[4-(2-pyridylcarbonyl)piperazinyl]-1H-indazol-6-yl}sulfonyl)amino]cyclopropanecarbonitrile], the IC50 is no more than 0.1 µM on PARG [1], 1 to 10 µM in test [2] and no more than 0.1 µM at PARG [3].
